Source: PubChem BioAssay (NCI)
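Following 48 hours of exposure in 96-well plates, responses at five concentrations were used to interpolate endpoints linearly. GI50: concentration for 50% inhibition of growth. TGI: total growth inhibition.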

Key:
Test in all cases: NCI anticancer screen, dose series, 48 h
HCT-116 colon = test system: HCT-116 colon
HCT-15 colon = test system: HCT-15 colon
MDA-MB-435 = test system: MDA-MB-435
NCI/ADR-RES ovarian = test system: NCI/ADR-RES ovarian
SF-268 CNS = test system: SF-268 CNS
T-47D breast = test system: T-47D breast
MALME-3M melanoma = test system: MALME-3M melanoma
OVCAR-3 ovarian = test system: OVCAR-3 ovarian
RPMI-8226 leukemia = test system: RPMI-8226 leukemia
HL-60(TB) leukemia = test system: HL-60(TB) leukemia

Row | Compound | TGI (HCT-116 colon) [µM] | TGI (HCT-15 colon) [µM] | TGI (MDA-MB-435) [µM] | TGI (NCI/ADR-RES ovarian) [µM] | TGI (SF-268 CNS) [µM] | TGI (T-47D breast) [µM] | TGI (MALME-3M melanoma) [µM] | TGI (OVCAR-3 ovarian) [µM] | TGI (RPMI-8226 leukemia) [µM] | TGI (HL-60(TB) leukemia) [µM] | GI50 (HCT-15 colon) [µM] | GI50 (HL-60(TB) leukemia) [µM] | GI50 (MALME-3M melanoma) [µM] | GI50 (MDA-MB-435) [µM] | GI50 (NCI/ADR-RES ovarian) [µM] | GI50 (OVCAR-3 ovarian) [µM] | GI50 (RPMI-8226 leukemia) [µM] | GI50 (SF-268 CNS) [µM]
1 | O=C(OCC(Cl)(Cl)Cl)O[C@@H]1CCCC1(c1ccccc1)c1ccccc1 | > 100 | > 100 | > 100 | > 100 | > 100 | > 100 |  |  |  |  |  |  |  |  |  |  |  | 
2 | CC(=O)Oc1ccc(/C=C/C(=O)O[C@@H](C(=O)O)[C@@H](OC(=O)/C=C/c2ccc(OC(C)=O)c(OC(C)=O)c2)C(=O)O)cc1OC(C)=O | > 100 | > 100 | > 100 | > 100 | > 100 | > 100 | > 100 | > 100 | > 100 |  |  |  |  |  |  |  |  | 
3 | C[C@@H]1S[C@H](c2c(Cl)cccc2Cl)N2Cc3ccccc3N=C12 | > 100 | > 100 | > 100 |  | > 100 | > 100 |  | > 100 | > 100 | > 100 |  |  |  |  |  |  |  | 
4 | N#C[C@H](c1nc2ccccc2s1)c1nc2ccccc2nc1Cl | > 100 | 22.9 | > 100 | > 100 |  | > 100 | > 100 | 38.9 | > 100 | > 100 |  |  |  |  |  |  |  | 
5 | COc1ccc(C(C2=C(O)COC2=O)c2cc3c(cc2O)OCO3)cc1OC (stereo unspecified) | > 100 | > 100 | > 100 | > 100 | > 100 |  | > 100 | > 100 | > 100 | > 100 |  |  |  |  |  |  |  | 
6 | C[N+]1(CCN[N+]2(C)CCCCC2)CCc2ccccc2C1 (stereo unspecified) | > 100 | > 100 | > 100 | > 100 | > 100 | > 100 | > 100 | > 100 | > 100 |  |  |  |  |  |  |  |  | 
7 | C[C@H](C/C=C/C(C)(C)O)[C@H]1CC[C@@]2(C)[C@@H]3CC[C@H]4C(C)(C)[C@@H](O)CC[C@@]45C[C@@]35CC[C@]12C | 37.1 | 83.1 | 50.7 | 19.4 | 19.6 | 49.7 |  | > 100 | 52.8 |  |  |  |  |  |  |  |  | 
8 | S=C(Nc1ccc2cn[nH]c2c1)Nc1ccc2cn[nH]c2c1 | > 100 | > 100 | > 100 | > 100 | > 100 | > 100 | > 100 | > 100 | > 100 |  |  |  |  |  |  |  |  | 
9 | CSC1NC(c2ccc(Cl)cc2)=C(C#N)C(=O)N1C1OCC(OC(C)=O)C(OC(C)=O)C1OC(C)=O (stereo unspecified) |  | > 100 | > 100 | > 100 | > 100 |  | > 100 | > 100 | > 100 |  |  |  |  |  |  |  |  | 
10 | CCOC(=O)N(c1ccccc1)N(CC)C(=O)/C(C)=N/Nc1ccc([N+](=O)[O-])cc1 | 27.1 | 30.3 |  |  | 34.1 |  | 33.5 | 31.1 | 58 | 35.8 |  |  |  |  |  |  |  | 
11 | Cc1nc2c(=S)n(C)ncc2[nH]1 | > 100 | > 100 | > 100 | > 100 |  | > 100 | 69.7 | > 100 | > 100 | > 100 |  |  |  |  |  |  |  | 
12 | COc1ccc(C(OCC2OC(n3ccc(NC(=O)c4ccccc4)nc3=O)CC2OP2(=S)SCCS2)(c2ccccc2)c2ccc(OC)cc2)cc1 (stereo unspecified) | > 100 | > 100 | > 100 | > 10 | 44.1 | > 100 | 70.2 | 58.5 | > 100 |  |  |  |  |  |  |  |  | 
13 | CC(=O)NC(CC(C)C)C(=O)NC(Cc1ccccc1)C(=S)N1CCCC1 (stereo unspecified) |  | > 100 |  |  | > 100 |  | > 100 | > 100 | > 100 | > 100 |  |  |  |  |  |  |  | 
14 | O=C1Nc2ccccc2Nc2ccncc21 | > 100 | > 100 |  | > 100 | > 100 |  | > 100 | > 100 | > 100 | > 100 |  |  |  |  |  |  |  | 
15 | COc1ccc(/C=C/C2=NN(c3cccc(S(=O)(=O)O)c3)C3(C2)SCC(=O)N3c2nc3ccccc3s2)cc1 (stereo unspecified) | > 100 | > 100 | > 100 | > 100 | > 100 | 87.1 | > 100 |  | 84.5 | > 100 |  |  |  |  |  |  |  | 
16 | Cc1cc(=O)[nH]c(NN2C(Cl)C(=O)C2c2cccc(Cl)c2)n1 (stereo unspecified) |  | 40.9 |  |  | 98.1 |  |  | 51.1 | 34.8 | 40.4 |  |  |  |  |  |  |  | 
17 | Clc1ccc(OCc2nn3c(CCc4nnc5sc(COc6ccc(Cl)cc6)nn45)nnc3s2)cc1 | 85.4 | 95.8 | > 100 | 37.5 | > 100 | > 100 |  | 65.8 | > 100 | 72 |  |  |  |  |  |  |  | 
18 | O=C(NC(=S)NC(=O)c1cc(O)c(O)c(O)c1)c1cc(O)c(O)c(O)c1 | 44.4 | 67.8 | 24.7 | 70.4 | > 100 |  |  |  | > 100 |  |  |  |  |  |  |  |  | 
19 | COc1cc(C2c3cc4c(cc3OC(NCCO)C2C)OCO4)cc(OC)c1OC (stereo unspecified) | > 100 | > 34.8 | 0.463 | > 100 | > 84.9 | > 100 | > 100 | 0.603 | > 34 |  |  |  |  |  |  |  |  | 
20 | COc1cc(C2c3cc4c(cc3OC(N3CCNCC3)C2C)OCO4)cc(OC)c1OC (stereo unspecified) | 9.23 | > 39.9 | 1.1 |  | > 44.2 | > 100 |  | 0.512 | 17.3 | 0.929 |  |  |  |  |  |  |  | 
21 | COc1cccc(-c2cc(=O)c3ccccc3[nH]2)c1 | > 100 | > 100 |  |  | > 100 |  | > 100 | > 31.6 | > 100 | 8.57 |  |  |  |  |  |  |  | 
22 | COc1cc(N(Cc2ccc3oc(=O)c(-c4ccccc4)nc3c2)Cc2ccc3oc(=O)c(-c4ccccc4)nc3c2)cc(OC)c1OC | > 10 | > 10 | > 10 | > 10 | > 10 | > 10 |  | > 10 | > 10 | > 10 |  |  |  |  |  |  |  | 
23 | COc1ccc2c(OCc3nnc4ccc(-c5ccccc5)nn34)ccnc2c1 |  | > 100 | > 100 | > 100 | > 100 |  | > 100 | > 100 | > 100 | > 100 | > 100 | > 100 | > 100 | > 100 | > 100 | > 100 | > 100 | > 100
